Results published in paper PMC7601839, “Anti-Acne Effects of Cembrene Diterpenoids from the Cultured Soft Coral Sinularia flexibilis” (Marine Drugs, 2020).

Columns and labels:
[1] = test system: LPS-induced RAW 264.7 cells (NO production); test: NO production (Griess) in LPS-induced RAW 264.7 cells; format: cell-based
Method: (§1) Anti-inflammatory effects were analyzed in RAW 264.7 cells, which were cultured in DMEM with 10% FBS, 1% L-glutamine, and 1% penicillin-streptomycin, and maintained at 37 °C in a 5% CO2 atmosphere. RAW 264.7 cells (4.0 × 10^5 cells/mL) were seeded in 96-well plates and co-treated with LPS (500 ng/mL) and test samples. After 24 h, NO production was determined by Griess reagent, and the absorption was detected at 530 nm. The percentage inhibition of NO production was presented as the anti-inflammatory activity. PGE2 concentrations in cell culture media were determined with a PGE2 enzyme-linked immunosorbent assay (ELISA) kit (Enzo Life Sciences, Farmingdale, NY, USA). The survival rate of RAW 264.7 cells was detected using an MTT assay.

[2] = Survival rate of RAW 264.7 cells by MTT assay; format: cell-based; settings: mouse, LPS-induced RAW 264.7 cells, read-out: Cell Viability (%)
Method: as §1

[3] = test system: LPS-induced RAW 264.7 cells (PGE2 production); test: PGE2 production (ELISA) in LPS-induced RAW 264.7 cells; format: cell-based
Method: as §1

[4] = test system: HKC-induced RAW 264.7 cells (NO production); test: NO production (Griess) in heat-killed C. acnes (HKC)-induced RAW 264.7 cells; format: cell-based; settings: Mus musculus, RAW264.7, 24 h, read-out: IC50 Value of NO Inhibition
Method: (§2) C. acnes (4 × 10^8 cfu/mL) was heated at 80 °C for 30 min and killed. Heat-killed C. acnes (HKC) was freeze-dried as a powder and maintained at 4 °C until use. RAW 264.7 and HaCaT cells were cultured in DMEM with 10% FBS, 1% penicillin-streptomycin, and 1% L-glutamine at 37 °C in a 5% CO2 atmosphere. RAW 264.7 cells (4 × 10^5 cells/mL) and HaCaT cells (10^5 cells/mL) were seeded in six-well plates and co-treated with HKC (300 μg/mL) and test samples [24]. After 24 h, NO production was determined by adding the Griess reagent in the cell culture medium, and the absorption was measured in an ELISA reader at 530 nm. The sample culture medium was removed, and RAW 264.7 cells and HaCaT cells were washed with PBS.

[5] = test system: p-ERK; test: Western blot of p-ERK in LPS-induced RAW 264.7 cells; format: cell-based; settings: 30 min, SC-2 2.5–20 μM, SC-7 5–40 μM, SC-9 2.5–20 μM
Method: (§3) Whole-cell lysates were prepared using radioimmunoprecipitation (RIPA) assay. Proteins in lysate samples (30 μg) were analyzed using 10% sodium dodecylsulfate-polyacrylamide gel electrophoresis (SDS-PAGE). Gels were transferred to nitrocellulose membranes and probed with primary iNOS (clone N-20), COX-2 (clone C-20), p-ERK (clone N-20), p-JNK (clone N-20), and glyceraldehyde-3-phosphate dehydrogenase (GAPDH; clone 6C5) antibodies (Santa Cruz Biotechnology, Santa Cruz, CA, USA). Membranes were visualized with a BCIP/NBT kit (Gibco BRL, Grand Island, NY, USA). Protein expression was quantified using the Azure Biosystem C300 Imaging System. GAPDH expression was used as an internal control to compare with protein expressions of iNOS, COX-2, p-ERK, and p-JNK [24].

[6] = test system: p-JNK; test: Western blot of p-JNK in LPS-induced RAW 264.7 cells; format: cell-based; settings: 30 min, SC-2 2.5–20 μM, SC-7 5–40 μM, SC-9 2.5–20 μM
Method: as §3

[7] = test system: COX-2; test: Western blot of COX-2 in LPS-induced RAW 264.7 cells; format: cell-based; settings: 6 h and 24 h
Method: as §3

[8] = test system: iNOS; test: Western blot of iNOS in LPS-induced RAW 264.7 cells; format: cell-based; settings: 24 h
Method: as §3

[9] = test system: p-ERK; test: Western blot of p-ERK in HKC-treated RAW 264.7 cells; format: cell-based; settings: SC-2 2.5–20 μM, SC-7 5–40 μM, SC-9 2.5–20 μM
Method: as §3, §2

[10] = test system: p-JNK; test: Western blot of p-JNK in HKC-treated RAW 264.7 cells; format: cell-based; settings: SC-2 2.5–20 μM, SC-7 5–40 μM, SC-9 2.5–20 μM
Method: as §3, §2

[11] = test system: iNOS; test: Western blot of iNOS in HKC-treated RAW 264.7 cells; format: cell-based
Method: as §3, §2

[12] = test system: COX-2; test: Western blot of COX-2 in HKC-treated RAW 264.7 cells; format: cell-based
Method: as §3, §2

[13] = test system: HaCaT cells; test: Cytotoxicity analysis in HaCaT cells; format: cell-based, human
[14] = test system: p-ERK; test: Western blot of p-ERK in HKC-treated HaCaT cells; format: cell-based, human; settings: 30 min after HKC induction
Method: as §3, §2

[15] = test system: Testosterone-induced HaCaT cells; test: Anti-proliferative activity in testosterone-treated HaCaT cells (MTT); format: cell-based, human
Method: (§4) HaCaT cells (10^5 cells/mL) were seeded in 96-well plates and co-treated with testosterone (5 μg/mL) or DHT (5 μg/mL) and test samples with no cytotoxicity for 48 h. Cell proliferative activity was detected by an MTT assay.

[16] = test system: Dihydrotestosterone-induced HaCaT cells; test: Anti-proliferative activity in dihydrotestosterone-treated HaCaT cells (MTT); format: cell-based, human
Method: as §4

[17] = test system: iNOS; parameters: method as in PMID 23774887; settings: LPS-stimulated RAW264.7 macrophage cells; cited from earlier work
[18] = test system: HaCaT cells; settings: 20 nM, 48 h
Method: HaCaT cells (10^5 cells/mL) were seeded in 96-well plates and co-treated with testosterone (5 μg/mL) or DHT (5 μg/mL) and test samples with no cytotoxicity for 48 h [2, 25, 26]. Cell proliferative activity was detected by an MTT assay.

[19] = test system: COX-2; parameters: method as in PMID 23774887; settings: LPS-stimulated RAW264.7 macrophage cells; cited from earlier work

C=C1C(=O)O[C@@H]2C[C@H]1CC[C@]1(C)O[C@H]1CC/C(C)=C/CC[C@]2(C)O [SC-9, sinularin]
inhibition at 20 µM ([1]; Mus musculus, RAW264.7, 24 h): 102 ± 1.4%
IC50 ([1]; Mus musculus, RAW264.7, 24 h, read-out: IC50 Value of NO Inhibition): 3.85 ± 0.25 µM
viability at 24 h, 20 µM [2]: 98.9%
inhibitory effect on prostaglandin E2 (PGE2) production ([3]; 24 h): no inhibitory effect
IC50 ([3]; Mus musculus, RAW264.7, 6 h, read-out: IC50 Value of PGE2 Inhibition): 6.22 µM
IC50 [4]: 2.81 ± 0.2 µM
p-ERK protein expression [5]: dose-dependent inhibitory effects
p-JNK protein expression [6]: dose-dependent inhibitory effects
COX-2 protein expression [7]: more significant COX-2 inhibitory effects at 6 h than that at 24 h
iNOS protein expression [8]: decreased iNOS protein expression
p-ERK expression [9]: good inhibitory effects
p-JNK expression [10]: good inhibitory effects
iNOS expression [11]: significant inhibitory effects
COX-2 expression [12]: no changes
concentrations with no cytotoxicity to HaCaT cells ([13]; HaCaT cells): 312 to 2500 nM
growth inhibition of HaCaT cells ([13]; at high doses): caused growth inhibition
p-ERK protein expression [14]: significant inhibitory effects
inhibition at 0.08 µM ([15]; Homo sapiens, testosterone-induced HaCaT cells, 0.08 μM): 6.5 ± 0.5%
inhibition at 0.16 µM ([15]; Homo sapiens, testosterone-induced HaCaT cells, 0.16 μM): 11.5 ± 1.3%
inhibition at 0.32 µM ([15]; Homo sapiens, testosterone-induced HaCaT cells, 0.32 μM): 19.1 ± 1.3%
testosterone-induced HaCaT cell proliferation ([15]; SC-2 1.25–5, SC-7 2.5–10, SC-9 0.08–0.32 μM, 48 h): significantly decreased
keratinocyte over-proliferation by DHT ([16]; HaCaT keratinocytes): inhibited keratinocyte over-proliferation
inhibition at 0.08 µM ([16]; Homo sapiens, dihydrotestosterone-induced HaCaT cells, 0.08 μM): 8.5 ± 0.7%
inhibition at 0.16 µM ([16]; Homo sapiens, dihydrotestosterone-induced HaCaT cells, 0.16 μM): 16 ± 0.7%
inhibition at 0.32 µM ([16]; Homo sapiens, dihydrotestosterone-induced HaCaT cells, 0.32 μM): 18 ± 3.1%

C/C1=C\CC[C@](C)(O)[C@H]2C[C@@H](CC[C@]3(C)O[C@H]3CC1)[C@H](C)C(=O)O2 [SC-10, dihydrosinularin]
inhibitory effects on NO expression [1]: no inhibitory effects
inhibition at 20 µM ([1]; Mus musculus, RAW264.7, 24 h): 28.2 ± 4.6%
viability at 24 h, 20 µM [2]: 117 ± 1.9%

C=C1C(=O)O[C@]2(C)CC[C@@H]1C[C@@H]1O[C@@]1(C)C/C=C/[C@@](C)(OO)CCC2=O [flexilarin D]
accumulation of the proinflammatory iNOS protein [17]: significantly inhibit

C[C@]12CC[C@H]3[C@@H](CCC4=CC(=O)CC[C@@]43C)[C@@H]1CC[C@@H]2O [testosterone]
HaCaT cell proliferation [18]: significantly induced

flexibilisolides C
accumulation of the proinflammatory iNOS protein [17]: significantly inhibit
accumulation of COX-2 protein [19]: could reduce

flexibilisolides D
accumulation of the proinflammatory iNOS protein [17]: significantly inhibit
